From patent publication US20260356841A1, “HETEROCYCLIC PYRIDINONE COMPOUNDS AS TRIGGERING RECEPTOR EXPRESSED ON MYELOID CELLS 2 AGONISTS AND METHODS OF USE” (Vigil Neuroscience, Inc., priority 2023, published 2026)

These compounds were tested against T1, human TREM2 (Homo sapiens, UniProt Q9NZC2) (assay: TREM2 agonist potency by cellular phosphorylation of Spleen Tyrosine Kinase (Syk), AlphaLisa, HEK293T-hTREM2 cells). Conditions: not given.
T1 construct: expressed in transfected cells; host or cells: HEK293T (HEK293T-hTREM2 cells)
T1 sequence (Q9NZC2 19-230): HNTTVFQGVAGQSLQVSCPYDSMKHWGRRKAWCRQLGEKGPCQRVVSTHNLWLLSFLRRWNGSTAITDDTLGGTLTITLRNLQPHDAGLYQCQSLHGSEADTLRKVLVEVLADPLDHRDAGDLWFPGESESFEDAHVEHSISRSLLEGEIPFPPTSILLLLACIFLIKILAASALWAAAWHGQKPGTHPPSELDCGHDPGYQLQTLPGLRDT
T1 sequence (O43914 22-113 partner): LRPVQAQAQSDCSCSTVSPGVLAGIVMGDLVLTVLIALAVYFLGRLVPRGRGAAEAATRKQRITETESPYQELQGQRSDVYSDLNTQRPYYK
Type: cell-based
Protocol: Measurement of TREM2 agonist potency was done using a HEK cell line expressing human TREM2 and DAP12 (HEK293T-hTREM2 cells). Binding of small molecules to, and activation of, TREM2 increases the phosphorylation of Syk. The resultant levels of Syk phosphorylation are measured using a commercial AlphaLisa reagent kit. To perform the assay, HEK-hTREM2 cells were plated at 14,000 cells per well in a 384 well plate, in 25 μL of complete growth media and incubated at 37° C., 5% CO2 for 20-24 hours.
Prior to the assay, test compounds were diluted in the 384 well plates in assay buffer and allowed to equilibrate for 30 minutes. Growth media was removed from cell plates by inversion on blotting paper, and 25 μL of test articles in assay buffer was added to cells. Cells were incubated for 45 minutes at room temperature. After 45 minutes, assay buffer was removed and 10 μL of lysis buffer was added. Plates were shaken for 20 minutes at 350 RPM at room temperature. After complete lysis, AlphaLisa reagents were added to the lysate, and fluorescence intensity was measured using a Perkin Elmer Envision plate reader. Intensities were used to generate a standard curve, and % activation was calculated. Curve fitting was performed using Prism v9 software, log (agonist) vs response-variable slope (four parameters), and EC50s were calculated from the curve fit.
The results presented in Table B have been generated with the in vitro assay described above. This assay may be used to test any of the compounds described herein to assess and characterize a compound's ability to act as an agonist of TREM2.

EC50 | SMILES
< 0.1 µM | Cc1nc2nc(N3C[C@@H](C)O[C@@H](c4ccc(=O)n(C)c4)C3)nc(-c3ccc(C(F)(F)F)cc3F)c2nc1C [Example 7, 5-[(2S,6R)-4-[4-[2-fluoro-4-(trifluoromethyl)phenyl]-6,7-dimethyl-pteridin-2-yl]-6-methyl-morpholin-2-yl]-1-methyl-pyridin-2-one]

Same assay, conditions: hTREM2 EC50 Data (HEK293 Cells); Syk phosphorylation, AlphaLisa; read-out: hTREM2 EC50

SMILES | EC50
Cc1nc2c(C34CC(C(F)(F)F)(C3)C4)nc([C@H]3CCO[C@@H](c4ccc(=O)[nH]c4)C3)nc2c(=O)n1C (racemic) [Example 216, 2,3-dimethyl-6-[rac-(2R,4S)-2-(6-oxo-1H-pyridin-3-yl)tetrahydropyran-4-yl]-8-[3-(trifluoromethyl)-1-bicyclo[1.1.1]pentanyl]pyrimido[5,4-d]pyrimidin-4-one] | 0.1 to 0.5 µM
Cc1nc2c(C34CC(C(F)(F)F)(C3)C4)nc([C@H]3CCO[C@@H](c4ccc(=O)n(N)c4)C3)nc2c(=O)n1C (racemic) [Example 218, 2,3-dimethyl-6-[rac-(2R,4S)-2-(1-amino-6-oxo-3-pyridyl)tetrahydropyran-4-yl]-8-[3-(trifluoromethyl)-1-bicyclo[1.1.1]pentanyl]pyrimido[5,4-d]pyrimidin-4-one] | 0.1 to 0.5 µM
CN1Cc2c(cc([C@H]3CCO[C@@H](c4ccc(=O)n(C)c4)C3)nc2-c2ccc(C(F)(F)F)cc2F)C1=O (single isomer, unassigned) [Example 165] | 0.1 to 0.5 µM
CN(C)c1nc2nc([C@H]3CCO[C@H](c4ccc(=O)n(C)c4)C3)nc(-c3ccc(F)cc3F)c2s1 (stereo in doubt) [Example 11, 5-[(2S,4S)-4-[7-(2,4-difluorophenyl)-2-(dimethylamino)thiazolo[4,5-d]pyrimidin-5-yl]tetrahydropyran-2-yl]-1-methyl-pyridin-2-one] | 0.1 to 0.5 µM
Cc1nc2nc([C@@H]3CCO[C@H](c4ccc(=O)n(C)c4)C3)nc(-c3ccc(F)cc3F)c2nc1C [Example 2, 5-[(2S,4R)-4-[4-(2,4-difluorophenyl)-6,7-dimethyl-pteridin-2-yl]tetrahydropyran-2-yl]-1-methyl-pyridin-2-one] | > 0.5 µM
CN(C)c1nc2nc([C@H]3CCO[C@@H](c4ccc(=O)n(C)c4)C3)nc(-c3ccc(F)cc3F)c2s1 [Example 13, 5-[(2R,4S)-4-[7-(2,4-difluorophenyl)-2-(dimethylamino)thiazolo[4,5-d]pyrimidin-5-yl]tetrahydropyran-2-yl]-1-methyl-pyridin-2-one] | 0.1 to 0.5 µM
Cc1nc2nc(N3C[C@@H](C)O[C@@H](c4ccc(=O)n(C)c4)C3)nc(-c3ccc(F)cc3F)c2nc1C [Example 16, 5-[(2S,6R)-4-[4-(2,4-difluorophenyl)-6,7-dimethyl-pteridin-2-yl]-6-methyl-morpholin-2-yl]-1-methyl-pyridin-2-one] | < 0.1 µM
Cc1nc2nc([C@H]3CCO[C@@H](c4ccc(=O)n(C)c4)C3)nc(-c3ccc(C(F)(F)F)c(F)c3F)c2nc1C [Example 18, 5-[(2R,4S)-4-[4-[2,3-difluoro-4-(trifluoromethyl)-phenyl]-6,7-dimethyl-pteridin-2-yl]tetrahydropyran-2-yl]-1-methyl-pyridin-2-one] | 0.1 to 0.5 µM
Cc1nc2nc([C@@H]3CCO[C@H](c4ccc(=O)n(C)c4)C3)nc(-c3ccc(C(F)(F)F)c(F)c3F)c2nc1C [Example 19] | < 0.1 µM
Cc1nc2nc(N3C[C@@H](C)O[C@@H](c4ccc(=O)n(C)c4)C3)nc(-c3cnc(C4CC4)s3)c2nc1C [Example 21, 5-[(2S,6R)-4-[4-(2-cyclopropylthiazol-5-yl)-6,7-dimethyl-pteridin-2-yl]-6-methyl-morpholin-2-yl]-1-methyl-pyridin-2-one] | < 0.1 µM
Cc1nc2nc(N3C[C@@H](C)O[C@@H](c4ccc(=O)n(C)c4)C3)nc(-c3cnc(C(F)(F)F)s3)c2nc1C [Example 23, 5-[(2S,6R)-4-[6,7-dimethyl-4-[2-(trifluoromethyl)thiazol-5-yl]pteridin-2-yl]-6-methyl-morpholin-2-yl]-1-methyl-pyridin-2-one] | < 0.1 µM
Cc1nc2nc([C@H]3CCO[C@@H](c4ccc(=O)n(C)c4)C3)nc(C34CC(C(F)(F)F)(C3)C4)c2nc1C [Example 25, 5-((2R,4S)-4-(6,7-dimethyl-4-(3-(trifluoromethyl)bicyclo[1.1.1]pentan-1-yl)pteridin-2-yl)tetrahydro-2H-pyran-2-yl)-1-methylpyridin-2(1H)-one] | < 0.1 µM
Cc1nc2nc([C@@H]3CCO[C@H](c4ccc(=O)n(C)c4)C3)nc(C34CC(C(F)(F)F)(C3)C4)c2nc1C [Example 26, 5-[(2S,4R)-4-[6,7-dimethyl-4-[3-(trifluoromethyl)-1-bicyclo[1.1.1]-pentanyl]pteridin-2-yl]tetrahydropyran-2-yl]-1-methyl-pyridin-2-one] | < 0.1 µM
Cc1nc2nc(C3CCOC(c4ccc(=O)n(C)c4)C3)nc(C34CC(C(F)(F)F)(C3)C4)c2nc1C (stereo not drawn) [Example 27, 5-(4-(6,7-dimethyl-4-(3-(trifluoromethyl)-bicyclo[1.1.1]pentan-1-yl)pteridin-2-yl)tetrahydro-2H-pyran-2-yl)-1-methylpyridin-2(1H)-one] | < 0.1 µM
Cc1nc2nc([C@H]3CCO[C@@H](c4ccc(=O)n(C)c4)C3)nc(C3CCC(F)(F)CC3)c2nc1C [Example 28, 5-((2R,4S)-4-(4-(4,4-difluorocyclohexyl)-6,7-dimethylpteridin-2-yl)tetrahydro-2H-pyran-2-yl)-1-methylpyridin-2 (1H)-one] | < 0.1 µM
Cc1nc2nc([C@@H]3CCO[C@H](c4ccc(=O)n(C)c4)C3)nc(C3CCC(F)(F)CC3)c2nc1C [Example 29, 5-((2S,4R)-4-(4-(4,4-difluorocyclohexyl)-6,7-dimethylpteridin-2-yl)tetrahydro-2H-pyran-2-yl)-1-methylpyridin-2 (1H)-one] | 0.1 to 0.5 µM

Next, values leading:

EC50 | SMILES
< 0.1 µM | Cc1nc2nc(C3CCO[C@@H](c4ccc(=O)n(-c5cscn5)c4)C3)nc(C34CC(C(F)(F)F)(C3)C4)c2nc1C (mixture of isomers) [Example 109, 5-((2R)-4-(6,7-dimethyl-4-(3-(trifluoromethyl)bicyclo-[1.1.1]pentan-1-yl)pteridin-2-yl)tetrahydro-2H-pyran-2-yl)-1-(thiazol-4-yl)pyridin-2(1H)-one]
< 0.1 µM | Cc1nc2nc([C@@H]3CCO[C@@H](c4ccc(=O)n(C)c4)C3)nc(-c3ccc(Cl)cc3F)c2nc1C (racemic) [Example 9, 1-methyl-5-[rac-(2R,4R)-4-[4-(4-chloro-2-fluoro-phenyl)-6,7-dimethyl-pteridin-2-yl]tetrahydropyran-2-yl]pyridin-2-one]
< 0.1 µM | Cc1nc2c(C34CC(C(F)(F)F)(C3)C4)nc([C@H]3CCO[C@@H](c4ccc(=O)n(C)c4)C3)nc2c(=O)n1C (racemic) [Example 217, 2,3-dimethyl-6-[rac-(2R,4S)-2-(1-methyl-6-oxo-3-pyridyl)tetrahydropyran-4-yl]-8-[3-(trifluoromethyl)-1-bicyclo[1.1.1]pentanyl]pyrimido[5,4-d]pyrimidin-4-one]
< 0.1 µM | Cc1nc2nc([C@H]3CCO[C@@H](c4ccc(=O)n(C)c4)C3)nc(C34CC(Cl)(C3)C4)c2nc1C (single isomer, unassigned) [Example 40]
< 0.1 µM | Cc1nc2nc(C3CCO[C@@H](c4ccc(=O)n(N(C)C)c4)C3)nc(C34CC(C(F)(F)F)(C3)C4)c2nc1C(F)F (stereo in doubt) [Example 220, 5-((2R,4R)-4-(6-(difluoromethyl)-7-methyl-4-(3-(trifluoromethyl)bicyclo[1.1.1]pentan-1-yl)pteridin-2-yl)tetrahydro-2H-pyran-2-yl)-1-(dimethylamino)pyridin-2(1H)-one]
< 0.1 µM | Cc1nc2nc([C@H]3CCO[C@@H](c4ccc(=O)n(C)c4)C3)nc(-c3ccc(F)cc3F)c2nc1C [Example 1, 1-methyl-5-[(2R,4S)-4-[4-(2,4-difluorophenyl)-6,7-dimethyl-pteridin-2-yl]tetrahydropyran-2-yl]pyridin-2-one]
< 0.1 µM | Cc1nc2nc([C@H]3CCO[C@@H](c4ccc(=O)n(C)c4)C3)nc(-c3ccc(C(F)(F)F)cc3F)c2nc1C [Example 4, 1-methyl-5-[(2R,4S)-4-[4-[2-fluoro-4-(trifluoro-methyl)phenyl]-6,7-dimethyl-pteridin-2-yl]tetrahydropyran-2-yl]pyridin-2-one]
< 0.1 µM | Cc1nc2nc([C@@H]3CCO[C@H](c4ccc(=O)n(C)c4)C3)nc(-c3ccc(C(F)(F)F)cc3F)c2nc1C [Example 5, 1-methyl-5-[(2S,4R)-4-[4-[2-fluoro-4-(trifluoromethyl)phenyl]-6,7-dimethyl-pteridin-2-yl]tetrahydropyran-2-yl]pyridin-2-one]
< 0.1 µM | CN(C)c1nc2nc([C@@H]3CCO[C@H](c4ccc(=O)n(C)c4)C3)nc(-c3ccc(F)cc3F)c2s1 [Example 14, 5-[(2S,4R)-4-[7-(2,4-difluorophenyl)-2-(dimethylamino)thiazolo[4,5-d]pyrimidin-5-yl]tetrahydropyran-2-yl]-1-methyl-pyridin-2-one]
< 0.1 µM | CN(C)c1nc2nc(C3CCOC(c4ccc(=O)n(C)c4)C3)nc(-c3ccc(F)cc3F)c2s1 (stereo not drawn) [Example 15]
